Earlier results as cited in patent US6992047B2, “Method of microencapsulating an agricultural active having a high melting point and uses for such materials” (Monsanto Technology LLC, priority 2001, dated 2006).

Settings: at 20° C.

Structure (SMILES): C=CCNC(=O)c1c([Si](C)(C)C)sc(C)c1C [silthiopham, 4,5-dimethyl-N-(2-propenyl)-2-(trimethylsilyl)-3-thiophenecarboxamide]
- water solubility: 35 ppm
